In ChEMBL document CHEMBL1157560, “SAR studies on new bis-aryls 5-HT7 ligands: Synthesis and molecular modeling” (Bioorg Med Chem, 2010) one finds Ki data, which are given here for 24 compounds.

In one experiment the target is T1, 5-hydroxytryptamine receptor 1A (Rattus norvegicus, UniProt P19327).
T1 sequence (P19327 whole entry): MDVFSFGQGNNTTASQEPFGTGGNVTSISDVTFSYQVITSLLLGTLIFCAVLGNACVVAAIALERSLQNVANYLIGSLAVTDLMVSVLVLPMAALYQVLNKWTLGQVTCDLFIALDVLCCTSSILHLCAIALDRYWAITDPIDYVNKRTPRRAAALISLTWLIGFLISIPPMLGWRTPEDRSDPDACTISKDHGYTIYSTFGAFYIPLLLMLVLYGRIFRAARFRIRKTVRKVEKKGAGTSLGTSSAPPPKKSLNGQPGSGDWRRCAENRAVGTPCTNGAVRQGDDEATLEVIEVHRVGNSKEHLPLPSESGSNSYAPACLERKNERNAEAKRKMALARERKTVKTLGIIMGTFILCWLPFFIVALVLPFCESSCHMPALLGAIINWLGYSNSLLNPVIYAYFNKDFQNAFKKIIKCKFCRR
The experiment is described as follows: Displacement of [3H]8-OH-DPAT from 5HT1A receptor in rat hippocampus. The class given is tissue-based. For orientation: Displacement assays read how much labelled ligand stays bound in the presence of the test substance.
Take `CN(C)CCSc1cccc(Br)n1`: the affinity, expressed as Ki, was 133 nM.
In the case of `CN(C)CCSc1cccc(-c2ccccc2)n1`, the affinity, expressed as Ki, was 43 nM.
Consider `Cc1cccc(C)c1-c1cccc(OCCN(C)C)n1`, for which the Ki amounted to 7220 nM.
On the same count and under the same terms, the same measure for `CN(C)CCOc1cccc(Br)n1`: 902 nM; for `Cc1cccc(C)c1-c1cccc(SCCN(C)C)n1`: 927 nM.
As for `CN(C)CCSc1cccc(-c2ccccc2)c1`, the affinity, expressed as Ki, was 516 nM.
Still for that read-out and setting: the same measure for `Cc1cccc(C)c1-c1cccc(SCCN(C)C)c1`: 2350 nM; for `CN(C)CCSc1cccc(-c2ccoc2)n1`: 28 nM.
The same measure, in the same setting: then `CN(C)CCSc1cccc(Br)c1`, with 676 nM.

The target of a further experiment is 5-hydroxytryptamine receptor 7 (Homo sapiens, UniProt P34969). The experiment is described as follows: Displacement of [3H]5CT from human cloned 5HT7B receptor expressed in HEK293 cells. The class given is cell-based.
5-hydroxytryptamine receptor 7, sequence (P34969 whole entry): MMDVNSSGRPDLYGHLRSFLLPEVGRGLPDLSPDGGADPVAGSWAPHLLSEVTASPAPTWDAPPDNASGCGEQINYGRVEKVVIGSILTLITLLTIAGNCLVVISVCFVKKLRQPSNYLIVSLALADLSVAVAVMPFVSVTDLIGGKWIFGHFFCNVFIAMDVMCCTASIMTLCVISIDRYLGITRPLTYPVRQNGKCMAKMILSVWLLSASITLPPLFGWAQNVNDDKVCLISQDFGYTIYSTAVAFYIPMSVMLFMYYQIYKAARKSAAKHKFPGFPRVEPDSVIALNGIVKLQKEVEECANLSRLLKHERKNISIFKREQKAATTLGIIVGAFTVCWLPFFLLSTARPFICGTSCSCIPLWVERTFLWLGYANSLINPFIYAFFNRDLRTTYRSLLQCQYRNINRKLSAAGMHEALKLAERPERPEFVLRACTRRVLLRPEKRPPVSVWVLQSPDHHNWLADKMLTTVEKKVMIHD
Compound `CN(C)CCSc1cccc(Br)n1` came in with a Ki of 37 nM.
Take `COc1cccc(OC)c1-c1cccc2c1OC[C@H](N(C)C)C2`: the affinity, expressed as Ki, was 2.55 nM.
`CCCN(CCC)[C@H]1COc2c(cccc2-c2ccccc2)C1` returned a Ki of 3.38 nM. The Ki values of the last two compounds are within 1.5-fold of each other.
`CN(C)CCOc1ccccc1-c1ccccc1` showed a Ki of 156 nM.
In turn, `CCCN(CCC)[C@H]1CCc2c(cccc2-c2ccccc2)C1` returned a Ki of 2.91 nM.
`Cc1cccc(C)c1-c1ccc2c(c1)C[C@H](N(C)C)CO2` returned a Ki of 13.4 nM.
Regarding `Cc1cccc(C)c1-c1ccccc1SCCN(C)C`, the affinity, expressed as Ki, was 1430 nM.
`Cc1cccc(C)c1-c1cccc(OCCN(C)C)n1` gave a Ki of 1610 nM.
`COc1cccc(OC)c1-c1cnnc(CCN(C)C)n1`: the inhibition constant (Ki) is over 10000 nM.
Consider `CCCN(CCC)[C@H]1CCc2c(cccc2-c2cccc3ccccc23)C1`, for which the inhibition constant Ki came out at 0.3 nM.
In the case of `Cc1cccc(C)c1-c1cccc(SCCN(C)C)n1`, the Ki turned out to be 128 nM.
Compound `Cc1cccc(C)c1-c1cnnc(CCN(C)C)n1` registered a Ki of over 10000 nM.
For the compound `CN(C)CCSc1cccc(-c2ccoc2)n1`, the affinity corresponds to a Ki of 26 nM.
`CN(C)CCOc1ccccc1Br` came in with a Ki of 2660 nM.
For `COc1ccccc1-c1ccccc1OCCN(C)C`, the Ki was found to be 669 nM. This Ki lies about 4-fold lower than the previous one.
`CN(C)CCc1nncc(-c2ccccc2)n1` displayed a Ki of over 10000 nM.
With `CN(C)CCSc1ccccc1-c1ccccc1`, the Ki is 553 nM.
For `COc1cccc(OC)c1-c1ccnc(CCN(C)C)n1`, the Ki is 1480 nM.
The same measure, in the same setting: then `CN(C)CCSc1ccccc1Br`, with 4110 nM.

As usually defined, the Ki is the dissociation constant of the complex between target and ligand, obtained from inhibition or displacement. Low values mean a stronger hold on the target, high ones a looser hold on the target.
